Test results published in ChEMBL document CHEMBL3046837, “Synthesis of some novel amino and thiotetrazole purine derivatives and investigation of their antimicrobial activity and DNA interactions” (Med Chem Res, 2013).
Activity calls are given as the source filed them. The rule behind the calls is not given here.

Assays:
Candida tropicalis = assay: Antifungal activity against Candida tropicalis ATCC 13803 after 72 hr by disk diffusion method; type: functional, organism-based
Escherichia coli [1] = assay: Covalent binding to Escherichia coli pBR322 DNA Guanine-guanine site assessed as inhibition of BamH1-mediated restriction digestion at 1250 uM by restriction endonuclease analysis
Escherichia coli [2] = assay: Covalent binding to Escherichia coli pBR322 DNA adenine-adenine site assessed as inhibition of Hind3-mediated restriction digestion at 1250 uM by restriction endonuclease analysis
Escherichia coli [3] = assay: Antibacterial activity against Escherichia coli ATCC 35218 after 24 hr by disk diffusion method; type: functional, organism-based
Enterococcus faecalis = assay: Antibacterial activity against Enterococcus faecalis […] after 24 hr by disk diffusion method; type: functional, organism-based
Staphylococcus aureus = assay: Antibacterial activity against Staphylococcus aureus ATCC 25923 after 24 hr by disk diffusion method; type: functional, organism-based
Bacillus cereus = assay: Antibacterial activity against Bacillus cereus NRLL B-3008 after 24 hr by disk diffusion method; type: functional, organism-based
Escherichia coli [4] = assay: Antibacterial activity against Escherichia coli ATCC 25922 after 24 hr by disk diffusion method; type: functional, organism-based
Escherichia coli [5] = assay: Binding affinity to Escherichia coli pBR322 DNA assessed as decrease in mobility of form 1 DNA at high concentration after 24 hr by agarose gel electrophoresis
Candida albicans = assay: Antifungal activity against Candida albicans ATCC 10231 after 72 hr by disk diffusion method; type: functional, organism-based
Proteus vulgaris = assay: Antibacterial activity against Proteus vulgaris ATCC 8427 after 24 hr by disk diffusion method; type: functional, organism-based
Pseudomonas aeruginosa = assay: Antibacterial activity against Pseudomonas aeruginosa ATCC 27853 after 24 hr by disk diffusion method; type: functional, organism-based
Bacillus subtilis = assay: Antibacterial activity against Bacillus subtilis […] after 24 hr by disk diffusion method; type: functional, organism-based
Escherichia coli [6] = assay: Binding affinity to Escherichia coli pBR322 DNA assessed as appearance of DNA fragments at high concentration after 24 hr by agarose gel electrophoresis
Escherichia coli [7] = assay: Binding affinity to Escherichia coli pBR322 DNA assessed as change in mobility of form 2 DNA at low concentration after 24 hr by agarose gel electrophoresis
Escherichia coli [8] = assay: Covalent binding to Escherichia coli pBR322 DNA assessed as appearance of small DNA fragments at high concentration after 24 hr by agarose gel electrophoresis
Escherichia coli [9] = assay: Binding affinity to Escherichia coli pBR322 DNA assessed as change in mobility of form 1 DNA at low concentration after 24 hr by agarose gel electrophoresis
Escherichia coli [10] = assay: Covalent binding to Escherichia coli pBR322 DNA assessed as increase in intensity of form 1 DNA at high concentration after 24 hr by agarose gel electrophoresis
Escherichia coli [11] = assay: Covalent binding to Escherichia coli pBR322 DNA assessed as disappearance of form 2 DNA at high concentration after 24 hr by agarose gel electrophoresis
Escherichia coli [12] = assay: Covalent binding to Escherichia coli pBR322 DNA assessed as increase in mobility of form 1 DNA at high concentration after 24 hr by agarose gel electrophoresis

Row | Compound | Activity (Escherichia coli [1]) | Activity (Escherichia coli [2]) | Activity (Escherichia coli [5]) | Activity (Escherichia coli [6]) | Activity (Escherichia coli [7]) | Activity (Escherichia coli [8]) | Activity (Escherichia coli [9]) | Activity (Escherichia coli [10]) | Activity (Escherichia coli [11]) | Activity (Escherichia coli [12]) | Activity (Candida tropicalis) | Activity (Escherichia coli [3]) | Activity (Enterococcus faecalis) | Activity (Staphylococcus aureus) | Activity (Bacillus cereus) | Activity (Escherichia coli [4]) | Activity (Candida albicans) | Activity (Proteus vulgaris) | Activity (Pseudomonas aeruginosa) | Activity (Bacillus subtilis)
1 | Cn1nnnc1Sc1ncnc2[nH]cnc12 | Active | Active | Active |  |  |  |  |  |  |  | inactive | inactive | inactive | inactive | inactive | inactive | inactive | inactive | inactive | inactive
2 | CCCn1cnc2c(Sc3nnnn3C)ncnc21 | Active | Active | Active | Active |  |  |  |  |  |  | inactive | inactive | inactive | inactive | inactive | inactive | inactive | inactive | inactive | inactive
3 | c1nc(Nc2nnn[nH]2)c2ncn(CC3CCC3)c2n1 | inactive | Active | Active | Active |  |  |  |  |  |  | inactive | inactive | inactive | inactive | inactive | inactive | inactive | inactive | inactive | inactive
4 | Cn1nnnc1Sc1ncnc2c1ncn2Cc1ccccc1 | Active | Active |  | Active |  |  |  |  | Active |  | inactive | inactive | inactive | inactive | inactive | inactive | inactive | inactive | inactive | inactive
5 | c1ccc(Cn2cnc3c(Nc4nnn[nH]4)ncnc32)cc1 | inactive | Active | Active |  |  |  |  |  |  |  | inactive | inactive | inactive | inactive | inactive | inactive | inactive | inactive | inactive | inactive
6 | c1nc(Nc2nnn[nH]2)c2nc[nH]c2n1 | inactive | Active |  |  | inactive | Active | inactive | Active |  |  | inactive | inactive | inactive | inactive | inactive | inactive | inactive | inactive | inactive | inactive
7 | Cn1cnc2c(Nc3nnn[nH]3)ncnc21 | inactive | Active |  |  | inactive | Active | inactive | Active |  |  | inactive | inactive | inactive | inactive | inactive | inactive | inactive | inactive | inactive | inactive
8 | CCOC(=O)Cn1cnc2c(Nc3nnn[nH]3)ncnc21 | inactive | Active | Active | Active |  |  |  |  |  |  | inactive | inactive | inactive | inactive | inactive | inactive | inactive | inactive | inactive | inactive
9 | Cn1nnnc1Sc1ncnc2c1ncn2CC1CCC1 | Active | Active |  | Active |  |  |  |  | Active |  | inactive | inactive | inactive | inactive | inactive | inactive | inactive | inactive | inactive | inactive
10 | CCOC(=O)Cn1cnc2c(Sc3nnnn3C)ncnc21 | Active | Active |  | Active |  |  |  |  | Active |  | inactive | inactive | inactive | inactive | inactive | inactive | inactive | inactive | inactive | inactive
11 | CCCCCCn1cnc2c(Nc3nnn[nH]3)ncnc21 | inactive | Active |  |  | inactive | Active | inactive | Active |  |  | inactive | inactive | inactive | inactive | inactive | inactive | inactive | inactive | inactive | inactive

The next lines start with results.

Row | Activity (Escherichia coli [1]) | Activity (Escherichia coli [2]) | Activity (Escherichia coli [5]) | Activity (Escherichia coli [6]) | Activity (Escherichia coli [7]) | Activity (Escherichia coli [8]) | Activity (Escherichia coli [9]) | Activity (Escherichia coli [10]) | Activity (Escherichia coli [11]) | Activity (Escherichia coli [12]) | Compound | Activity (Candida tropicalis) | Activity (Escherichia coli [3]) | Activity (Enterococcus faecalis) | Activity (Staphylococcus aureus) | Activity (Bacillus cereus) | Activity (Escherichia coli [4]) | Activity (Candida albicans) | Activity (Proteus vulgaris) | Activity (Pseudomonas aeruginosa) | Activity (Bacillus subtilis)
12 | inactive | Active |  |  | inactive | Active | inactive | Active |  |  | CC(C)n1cnc2c(Nc3nnn[nH]3)ncnc21 | inactive | inactive | inactive | inactive | inactive | inactive | inactive | inactive | inactive | inactive
13 | Active | Active |  |  |  |  |  |  | Active | Active | CCn1cnc2c(Sc3nnnn3C)ncnc21 | inactive | inactive | inactive | inactive | inactive | inactive | inactive | inactive | inactive | inactive
14 | Active | Active | Active | Active |  |  |  |  |  |  | CC(C)n1cnc2c(Sc3nnnn3C)ncnc21 | inactive | inactive | inactive | inactive | inactive | inactive | inactive | inactive | inactive | inactive
15 | inactive | Active |  |  | inactive | Active | inactive | Active |  |  | CCn1cnc2c(Nc3nnn[nH]3)ncnc21 | inactive | inactive | inactive | inactive | inactive | inactive | inactive | inactive | inactive | inactive
16 | Active | Active |  |  |  |  |  |  |  | Active | Cn1nnnc1Sc1ncnc2c1ncn2C | inactive | inactive | inactive | inactive | inactive | inactive | inactive | inactive | inactive | inactive
